In brackets after ≈: the same amount, converted by molar mass. Marks after values point to notes of the source that are not given here. Non-standard residues stand in square brackets, D forms with d. Residues, ends and D or L forms follow the SMILES beside them. dPhe(4-Cl) = N[C@H](Cc1ccc(Cl)cc1)C(=O)O; dPhe(4-Me) = Cc1ccc(C[C@@H](N)C(=O)O)cc1; d2Nal = N[C@H](Cc1ccc2ccccc2c1)C(=O)O
Experiments:
[1] = test system: Methicillin-resistant Staphylococcus aureus (MRSA); format: cell-based; conditions: Methicillin-resistant
Text: (§1) According to the Standards of Clinical and Laboratory Standards Institute (CLSI) of the USA for antimicrobial drug susceptibility test operation standards, the micronutrient serial twofold dilution method was used further determine MICs of the antimicrobial peptides LV-1 to LV-30 against 5 clinically common drug-resistant bacterial strains. The experiment was repeated 5 times in parallel. […] The tested drug-resistant strains included Methicillin-resistant Staphylococcus aureus (MRSA), carbapenem-resistant Escherichia coli (CREC), vancomycin-resistant Enterococcus (VRE), carbapenem-resistant Pseudomonas aeruginosa (CRPA), and carbapenem-resistant Klebsiella pneumoniae (CRKP).

[2] = test system: carbapenem-resistant Escherichia coli (CREC); format: cell-based; conditions: carbapenem-resistant (CREC)
Text: as §1

[3] = test system: carbapenem-resistant Klebsiella pneumoniae (CRKP); format: cell-based; conditions: carbapenem-resistant (CRKP)
Text: as §1

[4] = test system: carbapenem-resistant Pseudomonas aeruginosa (CRPA); format: cell-based; conditions: carbapenem-resistant (CRPA)
Text: as §1

[5] = test system: vancomycin-resistant Enterococcus (VRE); format: cell-based
Text: as §1

rabbit red blood cells = format: cell-based; conditions: red cells of rabbit, 1 h
[6] = test system: Pseudomonas aeruginosa ATCC 27853; test: Injectable formulations on mice infected with peritonitis; format: in vivo, ICR mice; conditions: twice a day for 3 days; for Number of mice that died on each day after infection: day 1 / Number of mice that died on each day after infection: day 2 / Number of mice that died on each day after infection: day 3 / Number of mice that died on each day after infection: day 4 / Number of mice that died on each day after infection: day 5 / Average survival times (Days): n = 10; for Average survival times (Days): observed for 14 d; for survival time of mice infected with Pseudomonas aeruginosa: tail vein, observed 14 d
Protocol: Both female and male ICR mice were used in the test, half of the female and male mice were taken and randomly assigned into groups, with 10 mice in each group, and kept in separate cages. The mice were divided into a blank control group, a negative control group, a positive control Levofloxacin group, and AMPs LV-1 to LV-30 groups. A bacterial suspension of Pseudomonas aeruginosa ATCC 27853 was prepared, a concentration of the suspension was adjusted 1×10^9 CFU/mL for subsequent use. Except for the blank control group, all other mice were injected with the bacterial suspension (0.2 mL, 1×10^9 CFU/mL), into abdominal cavity of the mice, to establish a model. After the model was successfully established, the mice were given drug immediately according to their body weights. Except for the blank control group and the negative control group, the mice in all other groups were administered the corresponding injectable formulations via tail vein, twice a day for 3 consecutive days. The mice were then observed for 14 d. The death of mice in each group was observed, and survival time of the mice was recorded. Results of the effect of the injectable formulations of AMPs LV-1 to LV-30 on the survival time of mice infected with Pseudomonas aeruginosa are shown in Table 10.

Row | Compound | MIC MRSA [1] [µg/mL] | MIC CREC [2] [µg/mL] | MIC CRKP [3] [µg/mL] | MIC CRPA [4] [µg/mL] | MIC VRE [5] [µg/mL] | MHC (minimum hemolytic concentration, lowest concentration causing 10% hemolysis) (rabbit red blood cells) [µg/mL] | Number of mice that died on each day after infection: day 1 ([6]; 1 mg/kg via tail vein) [Mouse] | Number of mice that died on each day after infection: day 2 ([6]; 1 mg/kg via tail vein) [Mouse] | Number of mice that died on each day after infection: day 3 ([6]; 1 mg/kg via tail vein) [Mouse] | Number of mice that died on each day after infection: day 4 ([6]; 1 mg/kg via tail vein) [Mouse] | Number of mice that died on each day after infection: day 5 ([6]; 1 mg/kg via tail vein) [Mouse] | Average survival times (Days) ([6]; 1 mg/kg via tail vein) | Number of mice that died on each day after infection: day 1 ([6]; 0.2 mg/kg via tail vein) [Mouse] | Number of mice that died on each day after infection: day 2 ([6]; 0.2 mg/kg via tail vein) [Mouse] | Number of mice that died on each day after infection: day 3 ([6]; 0.2 mg/kg via tail vein) [Mouse] | Number of mice that died on each day after infection: day 4 ([6]; 0.2 mg/kg via tail vein) [Mouse] | Number of mice that died on each day after infection: day 5 ([6]; 0.2 mg/kg via tail vein) [Mouse] | Average survival times (Days) ([6]; 0.2 mg/kg via tail vein) | Number of mice that died on each day after infection: day 1 ([6]; 5 mg/kg via tail vein) [Mouse] | Number of mice that died on each day after infection: day 2 ([6]; 5 mg/kg via tail vein) [Mouse] | also measured
1 | CC(=O)N[C@H](CCCNC(=N)N)C(=O)N[C@H](CCCCN)C(=O)N[C@H](CC(C)C)C(=O)N[C@H](CC(C)C)C(=O)N[C@H](Cc1ccc(C)cc1)C(=O)N[C@H](CCCCN)C(=O)N[C@H](CC(C)C)C(=O)N[C@H](CCCCN)C(=O)N[C@H](Cc1ccc(C)cc1)C(=O)N[C@H](CCCCN)C(=O)N[C@H](CCCNC(=N)N)C(N)=O [LV-11] (Ac-[dR][dK][dL][dL][dPhe(4-Me)][dK][dL][dK][dPhe(4-Me)][dK][dR]-NH2) | 2 (≈ 1.29 µM) | 2 (≈ 1.29 µM) | 8 (≈ 5.17 µM) | 4 (≈ 2.59 µM) | 4 (≈ 2.59 µM) | >1000 | 0 | 1 | 1 | 0 | 2 | 9.9**** Days |  |  |  |  |  |  |  |  | 
2 | CC(=O)N[C@H](CCCCN)C(=O)N[C@H](CCCNC(=N)N)C(=O)N[C@H](CC(C)C)C(=O)N[C@H](CC(C)C)C(=O)N[C@H](Cc1ccc2ccccc2c1)C(=O)N[C@H](CCCCN)C(=O)N[C@H](CC(C)C)C(=O)N[C@H](CCCCN)C(=O)N[C@H](Cc1ccc2ccccc2c1)C(=O)N[C@H](CCCCN)C(=O)N[C@H](CCCNC(=N)N)C(N)=O [LV-23] (Ac-[dK][dR][dL][dL][d2Nal][dK][dL][dK][d2Nal][dK][dR]-NH2) | 4 (≈ 2.47 µM) | 2 (≈ 1.24 µM) | 8 (≈ 4.94 µM) | 4 (≈ 2.47 µM) | 4 (≈ 2.47 µM) | >1000 | 1 | 1 | 0 | 2 | 0 | 9.5*** Days |  |  |  |  |  |  |  |  | 
3 | CC(=O)N[C@H](CCCNC(=N)N)C(=O)N[C@H](CCCCN)C(=O)N[C@H](CC(C)C)C(=O)N[C@H](CC(C)C)C(=O)N[C@H](Cc1ccc(Cl)cc1)C(=O)N[C@H](CCCCN)C(=O)N[C@H](CC(C)C)C(=O)N[C@H](CCCCN)C(=O)N[C@H](Cc1ccc(Cl)cc1)C(=O)N[C@H](CCCCN)C(=O)N[C@H](CCCNC(=N)N)C(N)=O [LV-7] (Ac-[dR][dK][dL][dL][dPhe(4-Cl)][dK][dL][dK][dPhe(4-Cl)][dK][dR]-NH2) | 2 (≈ 1.26 µM) | 8 (≈ 5.04 µM) | 4 (≈ 2.52 µM) | 2 (≈ 1.26 µM) | 4 (≈ 2.52 µM) | >1000 | 0 | 1 | 1 | 1 | 1 | 9.8*** Days |  |  |  |  |  |  |  |  | 
4 | CC(=O)N[C@H](CCCNC(=N)N)C(=O)N[C@H](CCCCN)C(=O)N[C@H](CC(C)C)C(=O)N[C@H](CC(C)C)C(=O)N[C@H](Cc1ccc2ccccc2c1)C(=O)N[C@H](CCCNC(=N)N)C(=O)N[C@H](CC(C)C)C(=O)N[C@H](CCCCN)C(=O)N[C@H](Cc1ccc2ccccc2c1)C(=O)N[C@H](CCCNC(=N)N)C(=O)N[C@H](CCCCN)C(N)=O [LV-20] (Ac-[dR][dK][dL][dL][d2Nal][dR][dL][dK][d2Nal][dR][dK]-NH2) | 2 (≈ 1.21 µM) | 8 (≈ 4.86 µM) | 8 (≈ 4.86 µM) | 4 (≈ 2.43 µM) | 4 (≈ 2.43 µM) | >1000 | 1 | 1 | 1 | 0 | 0 | 10.4**** Days | 2 | 1 | 2 | 1 | 0 | 7.0** Days | 1 | 2 | Number of mice that died on each day after infection: day 3 ([6]; 5 mg/kg via tail vein): 0 Mouse; Number of mice that died on each day after infection: day 4 ([6]; 5 mg/kg via tail vein): 0 Mouse; Number of mice that died on each day after infection: day 5 ([6]; 5 mg/kg via tail vein): 0 Mouse; Average survival times (Days) ([6]; 5 mg/kg via tail vein): 10.3**** Days; survival time of mice infected with Pseudomonas aeruginosa [6]: superior to those of the Levofloxacin group
5 | CC(=O)N[C@H](CCCNC(=N)N)C(=O)N[C@H](CCCCN)C(=O)N[C@H](CC(C)C)C(=O)N[C@H](CC(C)C)C(=O)N[C@H](Cc1ccc2ccccc2c1)C(=O)N[C@H](CCCNC(=N)N)C(=O)N[C@H](CC(C)C)C(=O)N[C@H](CCCCN)C(=O)N[C@H](Cc1ccc2ccccc2c1)C(=O)N[C@H](CCCNC(=N)N)C(=O)N[C@H](CCCNC(=N)N)C(N)=O [LV-22] (Ac-[dR][dK][dL][dL][d2Nal][dR][dL][dK][d2Nal][dR][dR]-NH2) | 2 (≈ 1.19 µM) | 8 (≈ 4.78 µM) | 2 (≈ 1.19 µM) | 8 (≈ 4.78 µM) | 4 (≈ 2.39 µM) | >1000 | 1 | 1 | 0 | 1 | 1 | 9.6*** Days |  |  |  |  |  |  |  |  | 
6 | CC(=O)N[C@H](CCCNC(=N)N)C(=O)N[C@H](CCCCN)C(=O)N[C@H](CC(C)C)C(=O)N[C@H](CC(C)C)C(=O)N[C@H](Cc1ccc2ccccc2c1)C(=O)N[C@H](CCCCN)C(=O)N[C@H](CC(C)C)C(=O)N[C@H](CCCCN)C(=O)N[C@H](Cc1ccc2ccccc2c1)C(=O)N[C@H](CCCCN)C(=O)N[C@H](CCCNC(=N)N)C(N)=O [LV-18] (Ac-[dR][dK][dL][dL][d2Nal][dK][dL][dK][d2Nal][dK][dR]-NH2) | 4 (≈ 2.47 µM) | 2 (≈ 1.24 µM) | 2 (≈ 1.24 µM) | 4 (≈ 2.47 µM) | 8 (≈ 4.94 µM) | >1000 | 0 | 1 | 0 | 1 | 1 | 10.9**** Days | 2 | 1 | 1 | 1 | 1 | 7.2** Days | 0 | 2 | Number of mice that died on each day after infection: day 3 ([6]; 5 mg/kg via tail vein): 1 Mouse; Number of mice that died on each day after infection: day 4 ([6]; 5 mg/kg via tail vein): 0 Mouse; Number of mice that died on each day after infection: day 5 ([6]; 5 mg/kg via tail vein): 0 Mouse; Average survival times (Days) ([6]; 5 mg/kg via tail vein): 10.5**** Days; survival time of mice infected with Pseudomonas aeruginosa [6]: superior to those of the Levofloxacin group

— US20250304620A1, “ANTIMICROBIAL PEPTIDE AND APPLICATION THEREOF” (priority 2023, published 2025)
